Experiments:
periodontal cells = settings: CAP-coated surfaces; Pitaru et al. 1995; cited from earlier work
[1] = system: periodontal ligament cells; experiment: Attachment and spread of periodontal ligament cells; assay type: cell-based; settings: for attachment and spread of cells from the periodontal ligament: compared with gingival fibroblasts
From the text: Cementum attachment protein (CAP) is a protein of molecular mass approximately 56 kDa present in cementum and specifically expressed by mineralized tissue-forming cells of the periodontium. […] The protein has sequences containing Gly-X-Y repeats typical of a collagen helix. SEQ ID NOS 1-5 are fragments of CAP. One 17-amino-acid peptide, SEQ ID NO 2, has 82% homology with a type XII collagen domain. […] Although another 19-amino-acid-long peptide (SEQ ID NO 3) has 95% homology to bovine al (I) collagen, two other peptides, SEQ ID NOS 4 and 5, are only 79% and 68% homologous.

Row | Substance | migration and attachment of periodontal cells versus gingival fibroblasts (periodontal cells) | capacity to promote attachment of periodontal cells after bacterial collagenase ([1]; bacterial collagenase digestion) | capacity to promote attachment of periodontal cells after chondroitinase ABC digestion ([1]; chondroitinase ABC digestion) | attachment and spread of cells from the periodontal ligament [1]
1 | Cementum attachment protein [CAP] | migrate in response to and attach better to CAP-coated surfaces than do gingival fibroblasts | eliminate the capacity of CAP to promote attachment of periodontal cells | had no effect | more efficiently than that of gingival fibroblasts
2 | type XIl collagen: collagen type with a domain 82% homologous to SEQ ID NO 2 of CAP [reference compound] |  |  |  | does not promote the attachment of periodontal ligament cells
